We go through one substance from US12629415B2, “Vaccine adjuvants” (THE PROVOST, FELLOWS, FOUNDATION SCHOLARS, AND THE OTHER …, priority 2018, dated 2026).

“Also recorded” adds a separate entry of the source.

For assay [1], the system named is adult PBMCs or neonatal CBMCs. Briefly: HEK-Blue IFNα/β SEAP assay on supernatants of stimulated mononuclear cells. Type of assay: cell-based, human. The method, then:
Isolation of mononuclear cells and monocytes—Primary PBMCs or CBMCs were isolated from healthy human blood or cord blood. Monocytes were isolated by negative selection using Monocyte Isolation Kit II (Miltenyi). […] Cells were cultured at 37° C., 5% CO2, 95% air in RPMI-1640, with stable 2.5 mM L-glutamine and 0.5 mM sodium pyruvate with 10% FBS (all from Sigma-Aldrich).
(§1) Poly(I:C) (5 μg/ml) (Invivogen), Poly(dA:dT) (5 μg/ml) (Sigma-Aldrich), 2′3′ cGAMP (10 μg/ml), 5′ triphosphate double stranded RNA (5′ ppp dsRNA) (2.5 μg/ml) and HSV-60 (2 μg/ml) (all from Invivogen) were transfected into PBMCs or CBMCs using TransIT-X2 (Mirus).
(§2) Measurement of cytokines—HEK Blue TNFα/IFNα/β Assays were performed as per the manufacturer's (Invivogen) instructions using Quanti-Blue Detection Reagent. SEAP levels were determined using a spectrophotometer plate reader at 630 nm. IFNα (3425-1H-6, Mabtech) and IP-10 (DY266, R&D Systems) were detected by sandwich ELISA. IFNα ELISA used pan specific IFNα antibodies, which allows detection of IFNα subtypes 1/13, 2, 4, 5, 6, 7, 8, 10, 14, 16 and 17. BioLegend LEGENDplex™ Human Inflammation Panel (13-plex) was carried out as per manufacturer's (Biolegend) instructions to determine levels of IFNγ, IL-10, IL-12p70 and IL-23. A BD LSR Fortessa cell analyser was used to acquire samples and BioLegend LEGENDplex™ software was used for analysis.

In assay [2] the test system is PBMCs or CBMCs. Briefly: IFNα sandwich ELISA on supernatants. The assay is classed as cell-based, human. Conditions: CBMCs compared with PBMCs; 8 or 24 h. The method, then: as §1, §2
On the technique in general: ELISA stands for enzyme-linked immunosorbent assay.

Assay [3] concerns PBMCs or CBMCs. The experiment in a line: HEK-Blue TNFα assay on supernatants. The assay is classed as cell-based, human. Conditions: CBMCs compared with PBMCs; 4, 8 or 24 hours. The method, then: as §1, §2
In assay [4] the test system is PBMCs or CBMCs. The experiment in a line: Quantitative RT-PCR of TNFα, IFNα and CXCL10 mRNA. Type of assay: cell-based, human. The note with it: CBMCs vs PBMCs. The method, then:
as §1
Quantitative RT-PCR—Total RNA from PBMCs or CBMCs was extracted using trizol extraction as previously described (16) and was reverse transcribed using MMLV Reverse Transcriptase (Promega) according to the manufacturer's protocol. This cDNA served as template for amplification of target genes, along with the ‘housekeeping’ gene βActin, by real-time PCR with SensiFast SYBR Green (Bioline) to determine the relative amounts of CXCL10, IFNα and TNFα mRNA. The ABI 7900HT system (Applied Biosystems) was used for real-time PCR, and the cycling threshold method (2^−(ΔΔCt)) was used for relative quantification by comparative method after normalization to βActin expression.

A further assay deals with Human PBMCs. Briefly: IL-1β ELISA on stimulated human PBMCs. The note with it: with or without LPS 100 pg/ml priming; 24 hours. Type of assay: cell-based. On the procedure:
Supernatants were collected after 24 hours and IL-1β was detected by ELISA. Human PBMCs were stimulated for 24 hours with polydA:dT (5 μg/ml, 2 μg/ml or 1 μg/ml) or alum (50 μg/ml) alone or with LPS (100 pg/ml) (C & D). Supernatants were collected and IL-1β was detected by ELISA. Bovine PBMCs were cultured with polydA:dT (1 μg/ml) with or without LPS (100 pg/ml) for 16 hours (E). Cell lysates were harvested and pro-IL-1β was detected by western blot. PBMCs were stimulated with media or polydA:dT (1 μg/ml) for 6 hours. Cells were lysed and RNA was harvested and used for analysis by RT-PCR (F). Results are mean+/− SEM for 6 calves tested individually in triplicate. For human analysis, results are mean+/− SEM for 6 humans tested individually in triplicate The PPIA gene was used for normalization of gene expression.

The test system of a further assay is bovine PBMCs. Briefly: Real-time PCR of gene expression in bovine PBMCs. The assay is classed as cell-based, cattle. The note with it: for IFN-α gene expression / IFN-β gene expression: vs unstimulated cells; for ISG-15 expression: after 12 hours (text), 6 hours (FIG. 23 legend). On the procedure: RNA extraction was conducted using Trizol and an RNeasy Plus Mini Kit (Qiagen Ltd). Tissue culture plates of stimulated cells were spun and supernatants were extracted while the remaining adherent cells were lysed using Trizol. Chloroform (200 μl per 1 ml of Trizol) was then added to the cell lysates and mixed vigorously before being centrifuged at 12000 g for 15 minutes at 4° C. The resulting aqueous layer of RNA was transferred to another tube containing 1 volume of ethanol. The mixture was then added to an RNeasy column and processed according to the manufacturer's instructions (Qiagen Ltd). After rigorous purification, the RNA was isolated and quantified using NanoDrop ND-1000 UV-Vis Spectrophotometer (NanoDrop Technologies Inc.). Finally the samples were stored at −80° C.
RNA was converted to cDNA using a High-Capacity cDNA Reverse transcription Kit (Applied Biosystems). Components needed for reverse transcriptase included RNA, RT 5× buffer, RNase Out, random hexamers, dNTP's and reverse transcriptase. The process was conducted under the following conditions: 25° C. for 10 minutes, 42° C. for 60 minutes, 95° C. for 3 minutes and hold at 4° C. The resulting cDNA was stored at −20° C.
Using, SYBR Green intercalating dye (Applied Biosystems Ltd), qRT-PCR was performed using Applied Biosystems 7500 Fast Real-Time PCR System. Each well on the qRT-PCR plate was comprised of SYBR Green dye, nuclease free H2O, cDNA, forward and reverse primers. Two negative controls were included to ensure no contamination was present. The cycle parameters of the process were: 95° C. for 20 seconds, 40 cycles at 95° C. for 3 seconds, 60° C. for 30 seconds followed by the dissociation steps which were: 95° C. for 15 seconds, 60° C. for 60 seconds, 95° C. for 15 seconds and 60° C. for 15 seconds. The Ct (threshold cycle) values from both the target and reference gene were used to measure the concentration of the target gene in the PCR reaction.
In general terms: Real-time PCR tracks product formation cycle by cycle.

Setting [5] is: polydA:dT 1 μg/ml, 6 hours, listed as PolydA:dT.
[6] abbreviates: polydA:dT 1 μg/ml, 6 hours, listed as poly(dA:dT).
[7] abbreviates: polydA:dT 1 μg/ml, 6 hours, listed as polydA:dT.

As to “poly(deoxyadenylic-thymidylic) acid [Poly(dA:dT)]”, in assay [1] (compared with adult blood, summary statement), the “innate immune response in neonatal and/or paediatric blood” value is “robust innate immune response in neonatal and/or paediatric blood”. In addition, the “type I IFN (IFNα/β) production” value in assay [1] (neonatal CBMCs compared with adult PBMCs, stimulation 4, 8 or 24 h) is “no inhibition of type I IFN production in CBMCs when compared to PBMCs”. Moreover, in the assay with PBMCs or CBMCs [2], the “IFNα secretion (ELISA)” value is given as “equivalent or enhanced CNA sensor responses in neonates compared to adults”. Further, in the assay with PBMCs or CBMCs [3], the TNFα production entry is “significantly more TNFα production from neonatal cells than from adult cells”. Besides, the “CXCL10 mRNA expression” value in the assay on PBMCs or CBMCs [4] (4 h) is “no inhibition of transcription”. In addition, in the assay with PBMCs or CBMCs [4] (24 h), the “IFNα mRNA expression” value is listed as “no inhibition of transcription”. Besides, in the assay on PBMCs or CBMCs [4] (CNA 4 h, LPS 2 h), the “TNFα mRNA expression” value is on record as “no significant difference in TNFα levels”. For the same substance, the “IL-1β secretion by human PBMCs” value in the assay on Human PBMCs is “only cells primed with LPS 3 h prior to transfection with polydA:dT secreted processed IL-1β; also recorded: human PBMCS did not secrete processed IL-1β”. For the same substance, in the assay on bovine PBMCs (polydA:dT 1 μg/ml transfected, 12 hours), the IFI-16 expression entry is given as “enhanced in response to polydA:dT; also recorded: regulates IFI-16 expression; also recorded: IFI-16 expression is enhanced by polydA:dT”. Also, the IL-18 expression result with bovine PBMCs (polydA:dT 1 μg/ml, 6 hours) was “enhanced by polydA:dT; also recorded: increased in response to polydA:dT after 6 hours; also recorded: can drive enhanced IL-18 expression; also recorded: increased the expression of IL-18; also recorded: robust driver of IL-1β secretion and IL-18 expression in cattle”. Further, the IFN-α gene expression result was “increases type I IFN expression by bovine PBMCs; also recorded: enhanced IFN-α, IFN-β and ISG-15 expression by bovine PBMCs” in the assay with bovine PBMCs (setting [5]); “enhanced type 1 interferon secretion” in the assay with bovine PBMCs (setting [6]); “enhanced after 6 hours in comparison to unstimulated cells; also recorded: increases IFN-α and IFN-β expression in bovine PBMCs” in the assay with bovine PBMCs (setting [7]). In addition, the IFN-β gene expression entry was “increases type I IFN expression by bovine PBMCs; also recorded: enhanced IFN-α, IFN-β and ISG-15 expression by bovine PBMCs” with bovine PBMCs (setting [5]); “enhanced type 1 interferon secretion” with bovine PBMCs (setting [6]); “enhanced after 6 hours in comparison to unstimulated cells; also recorded: increases IFN-α and IFN-β expression in bovine PBMCs” in the assay on bovine PBMCs (setting [7]). The ISG-15 expression result with bovine PBMCs (polydA:dT 1 μg/ml, listed as PolydA:dT) is “enhanced IFN-α, IFN-β and ISG-15 expression by bovine PBMCs”; in the assay with bovine PBMCs (polydA:dT 1 μg/ml, listed as polydA:dT), “increased in response polydA:dT after 12 hours; also recorded: ISG-15 expression is increased in bovine PBMCs”.
